The values below are quoted from earlier work in patent CN114831954A, “一种左氧氟沙星片” (priority 2022, dated 2022).

In data set [1] the test system is Gram-positive and Gram-negative bacteria [革兰氏阳性菌和阴性菌]. The following applies: background statement.
For data set [2] the following is noted: in vivo, po.
For data set [3] the following is noted: background statement.

Consider `CC1COc2c(N3CCN(C)CC3)c(F)cc3c(=O)c(C(=O)O)cn1c23` (stereo not shown) [氧氟沙星], for which, in data set [1] (Gram-positive and Gram-negative bacteria), the antibacterial effect result is “对革兰氏阳性菌和阴性菌均有光谱的效果”. Further, the “concentration dependence of antibacterial effect” value in data set [1] is given as “具有明显的浓度依赖性”. For the same molecule, in data set [2], the gastrointestinal adverse reactions entry was “有胃肠不良反应”. The biological half-life in data set [3] was about 6 h.
